{"source": "paper PMC3217850", "about": "“BACE-1 inhibition prevents the γ-secretase inhibitor evoked Aβ rise in human neuroblastoma SH-SY5Y cells” (Journal of Biomedical Science, 2011)", "key": {"SH-SY5Y APPwt cells [1]": {"system": "SH-SY5Y APPwt cells", "assay": "Aβ40 secretion from SH-SY5Y APPwt cells, ELISA of culture medium", "assay_type": "cell-based, human", "conditions": "for IC50: Homo sapiens, 24 h", "protocol": "(§1) The human neuroblastoma cell line SH-SY5Y was purchased from European Collection of Cell Cultures (ECACC). Cells were grown in DMEM/Ham's F-12 (PAA), supplemented with 1% non-essential amino acids (PAA) and 10% Fetal Bovine Serum (PAA). Cells were maintained at 37°C in a humidified atmosphere containing 5% CO2.\n(§2) SH-SY5Y cells were stably transfected with plasmids carrying human APPwt or APPswe gene. APP gene was purchased from Geneservice Ltd (clone sequence BC065529; clone MGC75167) and the APPswe mutation was generated using a QuikChange® Site-Directed Mutagenesis Kit (Stratagene). APPwt and APPswe genes were cloned into a mammalian expression vector pcDNA3.1 and the expression was under the control of CMV promotor. The cells were plated at the density of 6.25 × 10^4 cells/cm^2 in 6-well culture dishes (Sarstedt) and each well was transfected with 4 μg plasmid DNA. Lipofectamine™2000 (InVitrogen) was used as a transfection reagent according to manufacturer's instructions. The transfected cells were selected with 400 μg/ml G418 (PAA).\n(§3) Cells were plated at a density of 6.25 × 10^4 cells/cm^2 in 96-well cell culture plates (TRP) for Aβ measurements with ELISA or in 6-well culture dishes (Sarstedt) for Western blot. The day after the plating of the cells, the cultures were treated with various concentrations of γ-secretase inhibitor LY450139 or the BACE inhibitor for 24 hours. Stock solutions of inhibitors were prepared in dimethyl-sulfoxide (DMSO). All cultures including the control cells received equal amounts of DMSO, the final concentration being 0.1%. All the results were from two to three separate experiments and the data presented as means ± SEM.\n(§4) The secreted Aβ40 and Aβ42 peptides in cell culture media were measured using human amyloid β40 or β42 ELISA kits from Millipore. The absorbance was measured at 450 nm by Microplate reader (Molecular Devices). Data from inhibitor-treated cell cultures was expressed as a percent of untreated controls and the inhibition curves were analysed by non-linear regression using Graph Pad Prism."}, "SH-SY5Y APPswe cells [2]": {"system": "SH-SY5Y APPswe cells", "assay": "Aβ40 secretion from SH-SY5Y APPswe cells, ELISA of culture medium", "assay_type": "cell-based, human", "conditions": "for IC50: Homo sapiens, 24 h", "protocol": "as §1, §2, §3, §4"}, "SH-SY5Y APPwt cells [3]": {"system": "SH-SY5Y APPwt cells", "assay": "Aβ42 secretion from SH-SY5Y APPwt cells, ELISA of culture medium", "assay_type": "cell-based, human", "protocol": "as §1\nas §2, with “The transfected cells were selected with 400 μg/ml G418 (PAA).” left out\nas §4"}, "SH-SY5Y APPswe cells [4]": {"system": "SH-SY5Y APPswe cells", "assay": "Aβ42 secretion from SH-SY5Y APPswe cells, ELISA of culture medium", "assay_type": "cell-based, human", "conditions": "3 nM LY450139, SH-SY5Y APPswe", "protocol": "as §1\nas §2, with “The transfected cells were selected with 400 μg/ml G418 (PAA).” left out\nas §4"}, "AD patients": {"system": "AD patients", "design": "method as in earlier work", "conditions": "phase III, AD patients ref 14; cited from earlier work"}, "Aβ [5]": {"system": "Aβ", "design": "method as in PMID 19360898", "conditions": "healthy volunteers ref 3; cited from earlier work"}, "SH-SY5Y APPwt cells [6]": {"system": "SH-SY5Y APPwt cells", "assay": "Western blot (6E10 antibody) of APP substrate in cell lysates", "assay_type": "cell-based, human", "conditions": "3, 30 or 300 nM LY450139, 24 h", "protocol": "as §3\nSH-SY5Y cells were lysed in buffer containing 50 mM Tris-HCl pH 8.0, 150 mM NaCl, 1% Triton X-100, 1 mM EDTA, 1 mM Na3VO4 and 1 complete protease inhibitor cocktail tablet (Roche Diagnostics)/10 ml buffer. The cells were incubated with lysis buffer for 10 minutes on ice before scraping the cells from the dishes. Cell lysates were centrifuged at 14 000 rpm for 15 minutes. The protein content in the supernatants was measured using Pierce® 660 nm Protein Assay kit. Samples, containing 20 μg protein, were resolved in 7% NuPAGE®Tris-Acetate gels (InVitrogen) using Tris-Acetate SDS running buffer (InVitrogen). […] Average density of the bands was measured in ChemiDoc™XRS (Bio-Rad) by using Quantity One software."}, "Aβ [7]": {"system": "Aβ", "design": "method as in PMID 20363853", "conditions": "preclinically ref 13; cited from earlier work"}}}
{"smiles": "CCc1cn2c3c(cc(C(=O)N[C@@H](Cc4ccccc4)[C@H](O)CNC4CC4)cc13)N(C)S(=O)(=O)CC2", "note": "[BACE inhibitor, N-[(1S,2R)-1-Benzyl-3-(cyclopropylamino)-2-hydroxypropyl]-7-ethyl-1-methyl-3,4-dihydro-1H-[1,2, 5]thiadiazepino[3,4,5-hi-]indole-9-carboxamide 2,2-Dioxide]", "values": [{"measurement": "IC50", "setting": "SH-SY5Y APPwt cells [1]; BACE inhibitor alone, SH-SY5Y APPwt", "result": 7, "unit": "nM"}, {"measurement": "concentration required to abolish the LY450139-evoked Aβ40 rise completely", "setting": "SH-SY5Y APPwt cells [1]; SH-SY5Y APPwt", "result": 30, "unit": "nM"}, {"measurement": "IC50", "setting": "SH-SY5Y APPswe cells [2]; BACE inhibitor alone, SH-SY5Y APPswe", "result": 18, "unit": "nM"}]}
{"smiles": "CC(C)[C@H](O)C(=O)N[C@@H](C)C(=O)N[C@@H]1C(=O)N(C)CCc2ccccc21", "note": "[LY450139, (N)-((S)-2-hydroxy-3-methyl-butyryl)-1-(L-alaninyl)-(S)-amino-3-methyl-2,3,4,5-tetrahydro-1H-3-benzazepin-2-one dihydrate]", "values": [{"measurement": "Aβ40 levels increase above baseline", "setting": "SH-SY5Y APPwt cells [1]; 3 nM LY450139, 24 h, SH-SY5Y APPwt", "result": 60, "unit": "%"}, {"measurement": "effect on basal Aβ40 levels", "setting": "SH-SY5Y APPwt cells [1]; 30 nM LY450139 per se, SH-SY5Y APPwt", "result": "does not affect basal Aβ40 levels"}, {"measurement": "reduction of Aβ40 secretion compared to control", "setting": "SH-SY5Y APPwt cells [1]; 300 nM LY450139, 24 h, SH-SY5Y APPwt", "result": 80, "unit": "%"}, {"measurement": "fold less potent at inhibiting Aβ40 secretion from APPwt cells compared to APPswe cells", "setting": "SH-SY5Y APPwt cells [1]; APPwt vs APPswe IC50", "result": "~ 5 fold"}, {"measurement": "IC50", "setting": "SH-SY5Y APPwt cells [1]; SH-SY5Y APPwt, inhibitory phase at > 30 nM, approximate", "result": "~90", "unit": "nM"}, {"measurement": "Aβ40 production 2 - 6 hours after washout", "setting": "SH-SY5Y APPwt cells [1]; LY450139 pre-treated vs control cells, data not shown", "result": "did not differ"}, {"measurement": "Aβ40 levels increase with 3 nM LY450139 in second 24 h", "setting": "SH-SY5Y APPwt cells [1]; after 300 nM LY450139 for first 24 h, compared to cells given fresh medium in second 24 h, SH-SY5Y APPwt", "result": 60, "unit": "%"}, {"measurement": "Aβ40 secretion during 24 h after washout", "setting": "SH-SY5Y APPwt cells [1]; pre-treated 300 nM LY450139 24 h, then fresh medium 24 h, SH-SY5Y APPwt", "result": "did not differ from control cells"}, {"measurement": "effect on Aβ40 secretion per se", "setting": "SH-SY5Y APPswe cells [2]; 3 nM LY450139, SH-SY5Y APPswe", "result": "does not affect Aβ40-secretion per se"}, {"measurement": "remaining Aβ40 secretion", "setting": "SH-SY5Y APPswe cells [2]; 30 nM LY450139, SH-SY5Y APPswe", "result": "20-30%"}, {"measurement": "IC50", "setting": "SH-SY5Y APPswe cells [2]; SH-SY5Y APPswe, monophasic", "result": 18, "unit": "nM"}, {"measurement": "Aβ40 levels with 3 nM LY450139 in second 24 h", "setting": "SH-SY5Y APPswe cells [2]; after 300 nM LY450139 for first 24 h, SH-SY5Y APPswe", "result": "did not lead to increased Aβ40 levels"}, {"measurement": "secreted Aβ42 levels increase compared to controls", "setting": "SH-SY5Y APPwt cells [3]; 3 nM LY450139, SH-SY5Y APPwt", "result": 70, "unit": "%"}, {"measurement": "Aβ42 secretion after washout", "setting": "SH-SY5Y APPwt cells [3]; 300 nM LY450139 24 h, then fresh medium 24 h, SH-SY5Y APPwt", "result": "returned to control levels"}, {"measurement": "effect on secreted Aβ42 levels", "setting": "SH-SY5Y APPswe cells [4]", "result": "not affected"}, {"measurement": "cognitive symptoms versus placebo", "setting": "AD patients", "result": "fared worse than placebo-treated controls"}, {"measurement": "effect on Aβ levels in the cerebrospinal fluid", "setting": "Aβ [5]", "result": "lower Aβ levels"}, {"measurement": "substrate (APP bands, 6E10) level", "setting": "SH-SY5Y APPwt cells [6]", "result": "accumulation of substrate"}]}
{"smiles": "CCC[C@H](N[C@H]1CCc2cc(F)cc(F)c2C1)C(=O)Nc1cn(C(C)(C)CNCC(C)(C)C)cn1", "note": "[PF-3084014]", "values": [{"measurement": "Aβ rebound/rise attribute", "setting": "Aβ [7]", "result": "lack this attribute"}]}
